In patent publication US5536732A, “N-derivatives of 1-deoxy nojirimycin” (Merrell Pharmaceuticals Inc., priority 1990, dated 1996):

Key:
HIV-1GB8 [1] = assay: Inhibition of syncytia formation in JM cells infected with HIV-1GB8 (3 days incubation, 37° C.); assay type: cell-based; set-up: unit not given here; conditions: HIV-1GB8, 3 days at 37° C.
From the text: (§1) Inhibition of the maturation of envelope glycoproteins gp 160 and gp 120 in human HIV by α-glucosidase I inhibitors result in reductions in infectivity and syncytial formation of the HIV virus. AIDS, Vol. 5(6): 693-698 (1991). Therefore, in order to test the antiviral activity of the compounds of the present invention, the following protocol was followed.
(§2) JM cells were infected with HIV-1GB8 for one hour at room temperature. The cells were then washed and subsequently grown in the presence of varying concentrations of test compound or no compound (control). […] The cell-free supernatant fluid was then titrated for levels of infectivity.
ED50 means 50% effective dose corresponds to the concentration of inhibitor required to lower the syncytia counts by 50%.

HIV-1GB8 [2] = assay: Infectivity titration of cell-free supernatant from HIV-1GB8 infected JM cells; assay type: cell-based
From the text: as §1, §2
Infectivity is expressed as log10 determined by the highest dilution of cell-free medium at which syncytia was detected. The results in Table 1 were found.

[3] = Conc 0.5 mM, control 10^3 (Example 44) or 10^4 (Example 43)
[4] = Human immunodeficiency virus 1, 72 h, Conc 0.5 mM, read-out: % Control
[5] = Human immunodeficiency virus 1, 72 h, Conc 0.06 mM, read-out: % Control
[6] = Human immunodeficiency virus 1, 72 h, Conc 0.125 mM, read-out: % Control

In the case of C[Si](C)(C)c1cccc(CN2C[C@H](O)[C@@H](O)[C@H](O)[C@H]2CO)c1 [Example 43, 1,5-Dideoxy-1,5-[{[3-(Trimethylsilyl)Phenyl]Methyl}Imino]-D-Glucitol], the “ED50 (concentration required to lower the syncytia counts by 50%)” value (HIV-1GB8 [1]) was over 250, the “Infectivity (highest dilution of cell-free medium at which syncytia was detected)” value (HIV-1GB8 [2]; Conc 0.25 mM, control 10^4) was 10^4 and the “Infectivity (highest dilution of cell-free medium at which syncytia was detected)” value (HIV-1GB8 [2]; [3]) was 10^4. For the same molecule, the activity at 250 µM (HIV-1GB8 [2]; Human immunodeficiency virus 1, 72 h, Conc 0.25 mM, read-out: % Control) was 100% and the activity at 500 µM (HIV-1GB8 [2]; [4]) was 100%.
C[Si](C)(C)CN1C[C@H](O)[C@@H](O)[C@H](O)[C@H]1CO [Example 32, 1,5-dideoxy-1,5-{[(trimethylsilyl)methyl]imino}-D-glucitol] was tested, and the “ED50 (concentration required to lower the syncytia counts by 50%)” value (HIV-1GB8 [1]) was 540.
For C[Si](C)(C)c1ccc(CN2C[C@H](O)[C@@H](O)[C@H](O)[C@H]2CO)cc1 [Example 46, 1,5-dideoxy-1,5-[{[4-(trimethylsilyl)phenyl]methyl}imino]-D-glucitol], the “ED50 (concentration required to lower the syncytia counts by 50%)” value (HIV-1GB8 [1]) was 10, the “Infectivity (highest dilution of cell-free medium at which syncytia was detected)” value (HIV-1GB8 [2]; Conc 0.06 mM, control 10^4) was 10^3 and the “Infectivity (highest dilution of cell-free medium at which syncytia was detected)” value (HIV-1GB8 [2]; Conc 0.125 mM, control 10^4) was 10^2. The activity at 60 µM (HIV-1GB8 [2]; [5]) was 55% and the activity at 125 µM (HIV-1GB8 [2]; [6]) was 28%.
For CC(C)(C)[Si](C)(C)/C=C\CN1C[C@H](O)[C@@H](O)[C@H](O)[C@H]1CO [Example 59, 1,5-Dideoxy-1,5-{[(Z)-3-(t-butyldimethylsilyl)-2-propenyl]-imino-}-D-glucitol], the “ED50 (concentration required to lower the syncytia counts by 50%)” value (HIV-1GB8 [1]) was 190.
With C[Si](C)(C)CCCCCN1C[C@H](O)[C@@H](O)[C@H](O)[C@H]1CO [Example 49, 1,5-dideoxy-1,5-{[5-(trimethylsilyl)pentyl]imino}-D-glucitol] the “Infectivity (highest dilution of cell-free medium at which syncytia was detected)” value (HIV-1GB8 [2]; Conc 0.006 mM, control 10^3) was 10^2, the “Infectivity (highest dilution of cell-free medium at which syncytia was detected)” value (HIV-1GB8 [2]; Conc 0.012 mM, control 10^3) was 10^1 and the activity at 6 µM (HIV-1GB8 [2]; Human immunodeficiency virus 1, 72 h, Conc 0.006 mM, read-out: % Control) was 63%. It also gave an activity at 12 µM (HIV-1GB8 [2]; Human immunodeficiency virus 1, 72 h, Conc 0.012 mM, read-out: % Control) of 24%.
With C[Si](C)(C)/C=C\CN1C[C@H](O)[C@@H](O)[C@H](O)[C@H]1CO [Example 54, 1,5-dideoxy-1,5-{[(Z)-3-(trimethylsilyl)-2-propenyl]imino}-D-glucitol] the “ED50 (concentration required to lower the syncytia counts by 50%)” value (HIV-1GB8 [1]) was 310.
For C[Si](C)(C)CCCCCCN1C[C@H](O)[C@@H](O)[C@H](O)[C@H]1CO [Example 52, 1,5-Dideoxy-1,5-{[6-(Trimethylsilyl)Hexyl]Imino}-D-Glucitol], the “ED50 (concentration required to lower the syncytia counts by 50%)” value (HIV-1GB8 [1]) was 33.
For CC(C)(C)[Si](C)(C)/C=C/CN1C[C@H](O)[C@@H](O)[C@H](O)[C@H]1CO [Example 55, 1,5-Dideoxy-1,5-{[(E)-3-(t-butyldimethylsilyl)-2-propenyl]imino}-D-glucitol], the “ED50 (concentration required to lower the syncytia counts by 50%)” value (HIV-1GB8 [1]) was 45.
With CC[Si](C)(C)CN1C[C@H](O)[C@@H](O)[C@H](O)[C@H]1CO [Example 60, 1,5-Dideoxy-1,5-{[(Ethyldimethylsilyl)-Methyl]Imino}-D-Glucitol] the “ED50 (concentration required to lower the syncytia counts by 50%)” value (HIV-1GB8 [1]) was 18.
With C[Si](C)(C)CCCN1C[C@H](O)[C@@H](O)[C@H](O)[C@H]1CO [Example 44, 1,5-Dideoxy-1,5-{[3-(trimethylsilyl)propyl]imino}-D-glucitol] the “Infectivity (highest dilution of cell-free medium at which syncytia was detected)” value (HIV-1GB8 [2]; [3]) was 10^1 and the activity at 500 µM (HIV-1GB8 [2]; [4]) was 0%.
With C[Si](C)(C)CCCCN1C[C@H](O)[C@@H](O)[C@H](O)[C@H]1CO [Example 36, 1,5-dideoxy-1,5-{[4-(trimethylsilyl)butyl]imino}-D-glucitol] the “Infectivity (highest dilution of cell-free medium at which syncytia was detected)” value (HIV-1GB8 [2]; Conc 0.06 mM, control 10^4) was 10^3, the “Infectivity (highest dilution of cell-free medium at which syncytia was detected)” value (HIV-1GB8 [2]; Conc 0.125 mM, control 10^4) was 10^3 and the activity at 60 µM (HIV-1GB8 [2]; [5]) was 73%. For the same molecule, the activity at 125 µM (HIV-1GB8 [2]; [6]) was 37%.
C[Si](C)(C)/C=C/CN1C[C@H](O)[C@@H](O)[C@H](O)[C@H]1CO [Example 40, 1,5-dideoxy-1,5-{[(E)-3-(trimethylsilyl)-2-propenyl]imino}-D-glucitol] was tested, and the “ED50 (concentration required to lower the syncytia counts by 50%)” value (HIV-1GB8 [1]) was 20, the “Infectivity (highest dilution of cell-free medium at which syncytia was detected)” value (HIV-1GB8 [2]; Conc 0.06 mM, control 10^4) was 10^3 and the “Infectivity (highest dilution of cell-free medium at which syncytia was detected)” value (HIV-1GB8 [2]; Conc 0.125 mM, control 10^4) was 10^2. For the same molecule, the activity at 60 µM (HIV-1GB8 [2]; [5]) was 79% and the activity at 125 µM (HIV-1GB8 [2]; [6]) was 23%.
For C[Si](C)(CCCCN1C[C@H](O)[C@@H](O)[C@H](O)[C@H]1CO)c1ccccc1 [Example 53, 1,5-dideoxy-1,5-{[4-(dimethylphenylsilyl)butyl]imino}-D-glucitol], the “ED50 (concentration required to lower the syncytia counts by 50%)” value (HIV-1GB8 [1]) was 12.
